Experiments:
[1] = Half life in mouse at 1 mg, iv administered as single dose measured after 0.083 to 24 hrs by LC-MS analysis; format: ADME, organism-based; conditions: in vivo
[2] = Clearance in mouse at 1 mg, iv administered as single dose measured after 0.083 to 24 hrs by LC-MS analysis; format: ADME, organism-based; conditions: in vivo
[3] = biological target: T1, Eukaryotic initiation factor 4A-I (Homo sapiens, UniProt P60842); test: Inhibition of eIF4A1 in human MDA-MB-231 cells assessed as inhibition of cellular-translation incubated for 4 hrs by specific tandem sequence motif repeat GGCGGC in 5'- UTR containing luciferase reporter gene assay; format: cell-based
[4] = Clearance in dog at 1 mg, iv administered as single dose measured after 0.083 to 24 hrs by LC-MS analysis; format: ADME, organism-based, Canis lupus familiaris; conditions: in vivo
[5] = Protein binding in mouse plasma; format: ADME, cell-free; conditions: read-out: PPB (converted)
[6] = Volume of distribution at steady state in monkey at 1 mg, iv administered as single dose measured after 0.083 to 24 hrs by LC-MS analysis; format: ADME, organism-based, Macaca mulatta; conditions: rhesus monkey, in vivo, read-out: Vdss
[7] = Clearance in monkey at 1 mg, iv administered as single dose measured after 0.083 to 24 hrs by LC-MS analysis; format: ADME, organism-based, Macaca mulatta; conditions: rhesus monkey, in vivo
[8] = Clearance in iv dosed rat; format: ADME, organism-based; conditions: in vivo
[9] = biological target: T1, Eukaryotic initiation factor 4A-I; test: Inhibition of eIF4A1 in human MDA-MB-231 cells assessed as inhibition of cellular-translation incubated for 4 hrs by specific tandem sequence motif repeat CAACAA in 5'- UTR containing luciferase reporter gene assay; format: cell-based
[10] = Volume of distribution at steady state in dog at 1 mg, iv administered as single dose measured after 0.083 to 24 hrs by LC-MS analysis; format: ADME, organism-based, Canis lupus familiaris; conditions: in vivo, read-out: Vdss
[11] = biological target: T1, Eukaryotic initiation factor 4A-I; test: Inhibition of eIF4A1 in human MDA-MB-231 cells assessed as inhibition of cellular-translation incubated for 4 hrs by specific tandem sequence motif repeat AGAGAG in 5'- UTR containing luciferase reporter gene assay; format: cell-based
[12] = AUC in iv dosed rat; format: ADME, organism-based; conditions: in vivo
[13] = Half life in Sprague-Dawley rat at 1 mg, iv administered as single dose measured after 0.083 to 24 hrs by LC-MS analysis; format: ADME, organism-based; conditions: in vivo
[14] = Half life in monkey at 1 mg, iv administered as single dose measured after 0.083 to 24 hrs by LC-MS analysis; format: ADME, organism-based, Macaca mulatta; conditions: rhesus monkey, in vivo
[15] = test system: MDA-MB-231; test: Antitumor activity against human MDA-MB-231 cells xenografted in athymic nude ((NCr) nu/nu mouse assessed as inhibition of tumor growth at 1 mg/kg, iv treated once weekly for 2 weeks relative to control; format: functional; conditions: MDA-MB-231, iv, 336 h
[16] = Volume of distribution at steady state in iv dosed rat; format: ADME, organism-based; conditions: in vivo, read-out: Vdss
[17] = Protein binding in monkey plasma; format: ADME, cell-free, Macaca mulatta; conditions: rhesus monkey, read-out: PPB (converted)
[18] = test system: MDA-MB-231; test: Effect on GADPH protein expression in human MDA-MB-231 cells 10 to 100 nM incubated for 24 hrs by Western blot analysis; format: ADME, cell-based; conditions: mda-mb-231, 24 h
[19] = Volume of distribution at steady state in mouse at 1 mg, iv administered as single dose measured after 0.083 to 24 hrs by LC-MS analysis; format: ADME, organism-based; conditions: in vivo, read-out: Vdss
[20] = test system: MDA-MB-231; test: Antiproliferative activity against human MDA-MB-231 cells assessed as reduction in cell proliferation incubated for 72 hrs by CellTiter-Glo reagent based assay; format: functional; conditions: MDA-MB-231, 72 h
[21] = Volume of distribution at steady state in Sprague-Dawley rat at 1 mg, iv administered as single dose measured after 0.083 to 24 hrs by LC-MS analysis; format: ADME, organism-based; conditions: in vivo, read-out: Vdss
[22] = Protein binding in dog plasma; format: ADME, cell-free, Canis lupus familiaris; conditions: read-out: PPB (converted)
[23] = Clearance in Sprague-Dawley rat at 1 mg, iv administered as single dose measured after 0.083 to 24 hrs by LC-MS analysis; format: ADME, organism-based; conditions: in vivo
[24] = biological target: T1, Eukaryotic initiation factor 4A-I; test: Inhibition of eIF4A1 in human MDA-MB-231 cells assessed as inhibition of cellular-translation incubated for 4 hrs by specific tandem sequence motif repeat CCGCCG in 5'- UTR containing luciferase reporter gene assay; format: cell-based
[25] = Inhibition of eIF4A1 F163L mutant in human HAP1 cells assessed as reduction in cell proliferation incubated for 72 hrs by CellTiter-Glo reagent based assay; conditions: HAP1, 72 h
[26] = Protein binding in rat plasma; format: ADME, cell-free; conditions: read-out: PPB (converted)
[27] = Protein binding in human plasma; format: ADME, cell-free; conditions: read-out: PPB (converted)
[28] = Apparent permeability from apical to basolateral side in human Caco2 cells at 10 uM by LC/MS/MS analysis; conditions: Caco-2
[29] = Half life in iv dosed rat; format: ADME, organism-based; conditions: in vivo
[30] = biological target: Voltage-gated inwardly rectifying potassium channel KCNH2 (Homo sapiens, UniProt Q12809); test: Inhibition of human ERG by patch-clamp assay
[31] = Toxicity in athymic nude ((NCr) nu/nu mouse xenografted with human MDA-MB-231 cells assessed as induction of body weight loss at 1 mg/kg, iv treated once weekly for 2 weeks relative to control; format: organism-based; conditions: in vivo, 336 h

T1 sequence (P60842 whole entry): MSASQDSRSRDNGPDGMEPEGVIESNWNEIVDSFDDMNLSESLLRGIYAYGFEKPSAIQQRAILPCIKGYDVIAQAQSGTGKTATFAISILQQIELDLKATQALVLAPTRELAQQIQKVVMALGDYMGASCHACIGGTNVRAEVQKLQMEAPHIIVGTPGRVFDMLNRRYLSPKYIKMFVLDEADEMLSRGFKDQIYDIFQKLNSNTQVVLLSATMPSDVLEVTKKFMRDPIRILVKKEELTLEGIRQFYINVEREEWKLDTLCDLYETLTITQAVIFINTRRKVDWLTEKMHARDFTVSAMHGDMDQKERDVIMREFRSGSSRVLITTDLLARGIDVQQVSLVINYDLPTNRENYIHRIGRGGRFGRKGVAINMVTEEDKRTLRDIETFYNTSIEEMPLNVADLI
Sequence of Voltage-gated inwardly rectifying potassium channel KCNH2 (Q12809 whole entry): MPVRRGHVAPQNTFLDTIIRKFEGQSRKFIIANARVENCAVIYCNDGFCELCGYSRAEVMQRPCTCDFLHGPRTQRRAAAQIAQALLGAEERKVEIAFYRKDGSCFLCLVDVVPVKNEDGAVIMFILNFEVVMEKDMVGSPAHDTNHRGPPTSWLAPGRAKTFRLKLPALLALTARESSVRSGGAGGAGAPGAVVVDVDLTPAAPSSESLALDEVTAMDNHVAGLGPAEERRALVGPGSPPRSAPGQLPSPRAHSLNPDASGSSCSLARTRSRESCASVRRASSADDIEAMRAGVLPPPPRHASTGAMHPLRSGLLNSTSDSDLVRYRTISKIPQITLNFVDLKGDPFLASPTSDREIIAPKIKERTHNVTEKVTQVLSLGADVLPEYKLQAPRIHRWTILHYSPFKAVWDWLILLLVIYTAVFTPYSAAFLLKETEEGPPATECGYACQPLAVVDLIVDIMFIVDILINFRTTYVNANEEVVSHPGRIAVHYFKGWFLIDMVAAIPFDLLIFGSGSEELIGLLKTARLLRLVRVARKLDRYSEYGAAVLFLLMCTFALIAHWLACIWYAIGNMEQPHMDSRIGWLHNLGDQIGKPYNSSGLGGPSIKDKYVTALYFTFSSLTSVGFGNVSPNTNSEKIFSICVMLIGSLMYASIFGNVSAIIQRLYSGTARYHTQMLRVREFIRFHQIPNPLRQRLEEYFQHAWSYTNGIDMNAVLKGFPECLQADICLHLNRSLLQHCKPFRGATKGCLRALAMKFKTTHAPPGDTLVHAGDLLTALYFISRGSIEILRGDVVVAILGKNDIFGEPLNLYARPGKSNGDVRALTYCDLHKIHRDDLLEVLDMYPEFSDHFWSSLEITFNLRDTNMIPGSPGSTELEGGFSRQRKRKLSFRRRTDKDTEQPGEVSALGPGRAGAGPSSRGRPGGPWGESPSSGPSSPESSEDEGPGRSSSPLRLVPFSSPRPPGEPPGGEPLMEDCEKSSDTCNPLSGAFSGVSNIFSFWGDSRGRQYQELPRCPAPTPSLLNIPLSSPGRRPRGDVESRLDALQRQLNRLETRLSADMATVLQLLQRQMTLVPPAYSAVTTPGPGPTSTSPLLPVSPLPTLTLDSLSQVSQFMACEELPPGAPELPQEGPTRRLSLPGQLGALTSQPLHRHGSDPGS

With COc1cc2c(c(OC)n1)[C@]1(O)[C@H](O)[C@H](CN(C)C)[C@@H](c3ccccc3)[C@]1(c1ccc(C#N)cc1)O2 [ZOTATIFIN] the half-life [1] was 10.9 h, the clearance [2] was 15.8 mL/min/kg and the IC50 [3] was 13.8 nM. It also gave a clearance [4] of less than 12.4 mL/min/kg, a fraction unbound [5] of 0.252 and a Vd [6] of 12.2 L/kg. It also gave a clearance [7] of 11.7 mL/min/kg, a clearance [8] of 48 mL/min/kg and an IC50 [9] of 218 nM. For the same molecule, the Vd [10] was 17.8 L/kg, the IC50 [11] was 1.5 nM and the AUC [12] was 390 ng·h/mL. It also gave a half-life [13] of 4.39 h, a half-life [14] of 14.9 h and an inhibition in vivo at 1 mg/kg [15] of 122%. For the same molecule, the Vd [16] was 13 L/kg, the fraction unbound [17] was 0.365 and the Activity [18] was “Non-Toxic”. It also gave a Vd [19] of 12.1 L/kg, an IC50 [20] of 10.6 nM and a Vd [21] of 13 L/kg. For the same molecule, the fraction unbound [22] was 0.188, the clearance [23] was 48.3 mL/min/kg and the IC50 [24] was 92 nM. For the same molecule, the IC50 [25] was 371 nM, the fraction unbound [26] was 0.266 and the fraction unbound [27] was 0.332. It also gave a Papp A→B at 10 µM [28] of 2.5 ×10⁻⁶ cm/s, a half-life [29] of 4.4 h and an IC50 [30] greater than 10000 nM. For the same molecule, the Activity [31] was “Non-Toxic”.

Source: ChEMBL document CHEMBL4613325, “Design of Development Candidate eFT226, a First in Class Inhibitor of Eukaryotic Initiation Factor 4A RNA Helicase” (J Med Chem, 2020)
